Data from publication PMC9518264, “Design and synthesis of novel quinazolinone-based derivatives as EGFR inhibitors with antitumor activity” (Journal of Enzyme Inhibition and Medicinal Chemistry, 2022).
Like-named read-outs stand apart in the source and are kept apart here.

What was measured:
MOLT-4 = assay: cells; type: cell-based; conditions: Homo sapiens
SF-268 = assay: cells; type: cell-based; conditions: Homo sapiens
NCI-H322M = assay: cells; type: cell-based; conditions: Homo sapiens, read-out: growth inhibition % (GI%)
HT29 = assay: cells; type: cell-based; conditions: Homo sapiens
OVCAR-4 = assay: cells; type: cell-based; conditions: Homo sapiens
MCF7 = assay: cells; type: cell-based; conditions: Homo sapiens
SK-MEL-2 = assay: cells; type: cell-based; conditions: Homo sapiens
MDA-MB-468 = assay: NCI 60 cell line antiproliferative screening (SRB), Breast cancer; conditions: Homo sapiens, MDA-MB-468, read-out: growth inhibition % (GI%)
HCC-2998 = assay: cells; type: cell-based; conditions: Homo sapiens
MDA-MB-435 = assay: cells; type: cell-based; conditions: Homo sapiens
OVCAR-3 = assay: NCI 60 cell line antiproliferative screening (SRB), Ovarian cancer; conditions: Homo sapiens, OVCAR-3, read-out: growth inhibition % (GI%)
HCT-116 = assay: cells; type: cell-based; conditions: Homo sapiens
SK-MEL-5 = assay: cells; type: cell-based; conditions: Homo sapiens
SW-620 = assay: cells; type: cell-based; conditions: Homo sapiens
786-0 = assay: cells; type: cell-based; conditions: Homo sapiens
HCT-15 = assay: cells; type: cell-based; conditions: Homo sapiens
A549/ATCC = assay: cells; type: cell-based; conditions: Homo sapiens
NCI-H522 = assay: cells; type: cell-based; conditions: Homo sapiens
ACHN = assay: cells; type: cell-based; conditions: Homo sapiens, read-out: growth inhibition % (GI%)
SK-OV-3 = assay: cells; type: cell-based; conditions: Homo sapiens
SNB-75 = assay: cells; type: cell-based; conditions: Homo sapiens
K-562 = assay: cells; type: cell-based; conditions: Homo sapiens
COLO-205 = assay: cells; type: cell-based; conditions: Homo sapiens
IGROV1 = assay: cells; type: cell-based; conditions: Homo sapiens
SR = assay: cells; type: cell-based; conditions: Homo sapiens, read-out: growth inhibition % (GI%)
LOX IMIV = assay: cells; type: cell-based; conditions: Homo sapiens, 60 cell, read-out: growth inhibition % (GI%)
OVCAR-8 = assay: cells; type: cell-based; conditions: Homo sapiens
SK-MEL-28 = assay: cells; type: cell-based; conditions: Homo sapiens
A498 = assay: cells; type: cell-based; conditions: Homo sapiens
KM12 = assay: cells; type: cell-based; conditions: Homo sapiens
[1] = system: panel of 60 tumour cell lines; assay: NCI 60 cell line antiproliferative screening (SRB), whole panel or subpanels (means, ranges, words); type: cell-based, human; conditions: for inhibition at 10 µM: Homo sapiens, 60 cell, mean over the cell line panel, read-out: Mean growth inhibition % (mean GI%)
HS 578T = assay: cells; type: cell-based; conditions: Homo sapiens, read-out: growth inhibition % (GI%)
HOP-92 = assay: cells; type: cell-based; conditions: Homo sapiens
UO-31 = assay: cells; type: cell-based; conditions: Homo sapiens
EKVX = assay: cells; type: cell-based; conditions: Homo sapiens, read-out: growth inhibition % (GI%)
SN12C = assay: cells; type: cell-based; conditions: Homo sapiens, read-out: growth inhibition % (GI%)
U251 = assay: cells; type: cell-based; conditions: Homo sapiens
NCI-H226 = assay: cells; type: cell-based; conditions: Homo sapiens
HOP-62 = assay: cells; type: cell-based; conditions: Homo sapiens
TK-10 = assay: cells; type: cell-based; conditions: Homo sapiens
T-47D = assay: cells; type: cell-based; conditions: Homo sapiens, T47D, read-out: growth inhibition % (GI%)
MDA-MB-231/ATCC = assay: NCI 60 cell line antiproliferative screening (SRB), Breast cancer; type: cell-based; conditions: Homo sapiens, MDA-MB-231, read-out: growth inhibition % (GI%)
CCRF-CEM = assay: cells; type: cell-based; conditions: Homo sapiens, read-out: growth inhibition % (GI%)
PC-3 = assay: cells; type: cell-based; conditions: Homo sapiens
SF-295 = assay: cells; type: cell-based; conditions: Homo sapiens
SNB-19 = assay: cells; type: cell-based; conditions: Homo sapiens

O=C(CSc1nc2ccccc2c(=O)n1-c1ccccc1)NN=Cc1ccc(Oc2ccc(Br)cc2)cc1 [6b, N'-(4–(4-bromophenoxy)benzylidene)-2-((4-oxo-3-phenyl-3,4-dihydroquinazolin-2-yl)thio) acetohydrazide]
inhibition at 10 µM (MOLT-4; MOLT-4, read-out: growth inhibition % (GI%)): 44.5%
inhibition at 10 µM (SF-268; SF-268, read-out: growth inhibition % (GI%)): 15.7%
inhibition at 10 µM (NCI-H322M): < 15%
inhibition at 10 µM (HT29; HT-29, read-out: growth inhibition % (GI%)): 61.8%
inhibition at 10 µM (OVCAR-4; OVCAR-4, read-out: growth inhibition % (GI%)): 18.3%
inhibition at 10 µM (MCF7; MCF7, read-out: growth inhibition % (GI%)): 31.1%
inhibition at 10 µM (SK-MEL-2; SK-MEL-2, read-out: growth inhibition % (GI%)): < 15%
inhibition at 10 µM (MDA-MB-468): 34.9%
inhibition at 10 µM (HCC-2998; HCC 2998, read-out: growth inhibition % (GI%)): < 15%
inhibition at 10 µM (MDA-MB-435; MDA-MB-435, read-out: growth inhibition % (GI%)): 19.2%
inhibition at 10 µM (OVCAR-3): < 15%
inhibition at 10 µM (HCT-116; HCT-116, read-out: growth inhibition % (GI%)): 92.2%
inhibition at 10 µM (SK-MEL-5; SK-MEL-5, read-out: growth inhibition % (GI%)): 40.9%
inhibition at 10 µM (SW-620; SW-620, read-out: growth inhibition % (GI%)): 70.4%
inhibition at 10 µM (786-0; 786-0, read-out: growth inhibition % (GI%)): 54%
inhibition at 10 µM (HCT-15; HCT-15, read-out: growth inhibition % (GI%)): 36.3%
inhibition at 10 µM (A549/ATCC; A549, read-out: growth inhibition % (GI%)): 57.8%
inhibition at 10 µM (NCI-H522; NCI-H522, read-out: growth inhibition % (GI%)): 51.5%
inhibition at 10 µM (ACHN): < 15%
inhibition at 10 µM (SK-OV-3; SK-OV-3, read-out: growth inhibition % (GI%)): 15.5%
inhibition at 10 µM (SNB-75; SNB-75, read-out: growth inhibition % (GI%)): 42.2%
inhibition at 10 µM (K-562; K562, read-out: growth inhibition % (GI%)): 37.5%
inhibition at 10 µM (COLO-205; COLO 205, read-out: growth inhibition % (GI%)): 55.6%
inhibition at 10 µM (IGROV1; IGROV-1, read-out: growth inhibition % (GI%)): 34.5%
inhibition at 10 µM (SR): 26.6%
inhibition at 10 µM (LOX IMIV): 79%
inhibition at 10 µM (OVCAR-8; OVCAR-8, read-out: growth inhibition % (GI%)): 36.7%
inhibition at 10 µM (SK-MEL-28; SK-MEL-28, read-out: growth inhibition % (GI%)): 29.1%
inhibition at 10 µM (A498; A498, read-out: growth inhibition % (GI%)): 17.7%
inhibition at 10 µM (KM12; KM12, read-out: growth inhibition % (GI%)): 23.7%
inhibition at 10 µM [1]: 34.8%
inhibition at 10 µM (HS 578T; Hs-578T): 39.2%
inhibition at 10 µM (HOP-92; HOP-92, read-out: growth inhibition % (GI%)): 27%
inhibition at 10 µM (UO-31; UO-31, read-out: growth inhibition % (GI%)): < 15%
inhibition at 10 µM (EKVX): 39.3%
inhibition at 10 µM (SN12C): 59.3%
inhibition at 10 µM (U251; U-251, read-out: growth inhibition % (GI%)): 78.5%
inhibition at 10 µM (NCI-H226; NCI-H226, read-out: growth inhibition % (GI%)): 22.4%
inhibition at 10 µM (HOP-62; HOP-62, read-out: growth inhibition % (GI%)): 36.1%
inhibition at 10 µM (TK-10; TK-10, read-out: growth inhibition % (GI%)): < 15%
inhibition at 10 µM (T-47D): 17.6%
inhibition at 10 µM (MDA-MB-231/ATCC): 49.1%
inhibition at 10 µM (CCRF-CEM): 43.1%
inhibition at 10 µM (PC-3; PC-3, read-out: growth inhibition % (GI%)): 28.2%
inhibition at 10 µM (SF-295; SF-295, read-out: growth inhibition % (GI%)): 16.3%
inhibition at 10 µM (SNB-19; SNB-19, read-out: growth inhibition % (GI%)): 60.1%

CN1CCN(c2ccc(C=NNC(=O)CSc3nc4ccccc4c(=O)n3-c3ccc(Cl)cc3)cc2)CC1 [6l, 2-((3–(4-chlorophenyl)-4-oxo-3,4-dihydroquinazolin-2-yl)thio)-N'-(4–(4-methylpiperazin-1-yl)benzylidene)acetohydrazide]
inhibition at 10 µM (MOLT-4; MOLT-4, 10 μM, read-out: growth inhibition % (GI%)): < 15%
inhibition at 10 µM (SF-268; SF-268, 10 μM, read-out: growth inhibition % (GI%)): < 15%
inhibition at 10 µM (NCI-H322M; 10 μM): < 15%
inhibition at 10 µM (HT29; HT-29, HT29, 10 μM, read-out: growth inhibition % (GI%)): < 15%
inhibition at 10 µM (OVCAR-4; OVCAR-4, 10 μM, read-out: growth inhibition % (GI%)): < 15%
inhibition at 10 µM (MCF7; MCF7, 10 μM, read-out: growth inhibition % (GI%)): < 15%
inhibition at 10 µM (SK-MEL-2; SK-MEL-2, 10 μM, read-out: growth inhibition % (GI%)): < 15%
inhibition at 10 µM (MDA-MB-468): < 15%
inhibition at 10 µM (HCC-2998; HCC-2998, 10 μM, read-out: growth inhibition % (GI%)): < 15%
inhibition at 10 µM (MDA-MB-435; MDA-MB-435, 10 μM, read-out: growth inhibition % (GI%)): < 15%
inhibition at 10 µM (OVCAR-3): < 15%
inhibition at 10 µM (HCT-116; HCT-116, 10 μM, read-out: growth inhibition % (GI%)): < 15%
inhibition at 10 µM (SK-MEL-5; SK-MEL-5, 10 μM, read-out: growth inhibition % (GI%)): < 15%
inhibition at 10 µM (SW-620; SW-620, 10 μM, read-out: growth inhibition % (GI%)): < 15%
inhibition at 10 µM (786-0; 786-0, 10 μM, read-out: growth inhibition % (GI%)): < 15%
inhibition at 10 µM (HCT-15; HCT-15, 10 μM, read-out: growth inhibition % (GI%)): < 15%
inhibition at 10 µM (A549/ATCC; A549/ATCC, 10 μM, read-out: growth inhibition % (GI%)): < 15%
inhibition at 10 µM (NCI-H522; NCI-H522, 10 μM, read-out: growth inhibition % (GI%)): < 15%
inhibition at 10 µM (ACHN; 10 μM): < 15%
inhibition at 10 µM (SK-OV-3; SK-OV-3, 10 μM, read-out: growth inhibition % (GI%)): < 15%
inhibition at 10 µM (SNB-75; SNB-75, 10 μM, read-out: growth inhibition % (GI%)): < 15%
inhibition at 10 µM (K-562; K562, K-562, 10 μM, read-out: growth inhibition % (GI%)): < 15%
inhibition at 10 µM (COLO-205; COLO-205, 10 μM, read-out: growth inhibition % (GI%)): < 15%
inhibition at 10 µM (IGROV1; IGROV-1, IGROV1, 10 μM, read-out: growth inhibition % (GI%)): < 15%
inhibition at 10 µM (SR; 10 μM): < 15%
inhibition at 10 µM (LOX IMIV; LOX IMIV, 10 μM): 15.2%
inhibition at 10 µM (OVCAR-8; OVCAR-8, 10 μM, read-out: growth inhibition % (GI%)): < 15%
inhibition at 10 µM (SK-MEL-28; SK-MEL-28, 10 μM, read-out: growth inhibition % (GI%)): < 15%
inhibition at 10 µM (A498; A498, 10 μM, read-out: growth inhibition % (GI%)): 32.6%
inhibition at 10 µM (KM12; KM12, 10 μM, read-out: growth inhibition % (GI%)): < 15%
antiproliferative activity against all tested cell lines ([1]; 10 μM single dose): did not show activity
inhibition at 10 µM [1]: < 0%
inhibition at 10 µM (HS 578T; HS 578T, 10 μM): < 15%
inhibition at 10 µM (HOP-92; HOP-92, 10 μM, read-out: growth inhibition % (GI%)): < 15%
inhibition at 10 µM (UO-31; UO-31, 10 μM, read-out: growth inhibition % (GI%)): < 15%
inhibition at 10 µM (EKVX; 10 μM): < 15%
inhibition at 10 µM (SN12C; 10 μM): < 15%
inhibition at 10 µM (U251; U-251, U251, 10 μM, read-out: growth inhibition % (GI%)): < 15%
inhibition at 10 µM (NCI-H226; NCI-H226, 10 μM, read-out: growth inhibition % (GI%)): < 15%
inhibition at 10 µM (HOP-62; HOP-62, 10 μM, read-out: growth inhibition % (GI%)): < 15%
inhibition at 10 µM (TK-10; TK-10, 10 μM, read-out: growth inhibition % (GI%)): < 15%
inhibition at 10 µM (T-47D; T-47D, 10 μM): < 15%
inhibition at 10 µM (MDA-MB-231/ATCC): < 15%
inhibition at 10 µM (CCRF-CEM; 10 μM): < 15%
inhibition at 10 µM (PC-3; PC-3, 10 μM, read-out: growth inhibition % (GI%)): < 15%
inhibition at 10 µM (SF-295; SF-295, 10 μM, read-out: growth inhibition % (GI%)): < 15%
inhibition at 10 µM (SNB-19; SNB-19, 10 μM, read-out: growth inhibition % (GI%)): < 15%
